The test system of assay [1] is KK-Ay mice. The assay can be described thus: blood glucose level in KK-Ay mice (genetic type II diabetes model) after oral administration. The assay is classed as in vivo. The following applies: 10 mg/kg oral, blood sampled before and at 4 and 7 hours after administration (tormentic acid: before and 4 hours), n=4, p 0.05. The protocol: KK-Ay mice (CLEA Japan, Inc.), a genetic type II diabetes model, were used as the test animals. […] The animal feeding conditions were at constant temperature (22±2° C.) throughout the test period, and the light-dark period was 12 hours (light period: 9:00 am-9:00 pm). The feed (CE-2, CLEA Japan, Inc.) and water (tap water) were made freely available. The test substance was forcefully administered to the KK-Ay mice using a glass syringe and oral probe. The dose of each test substance was 10 mg/kg. Blood was sampled from the ocular fundus, immediately prior to and at 4 hours and 7 hours after the administration (for tormentic acid, immediately prior to and at 4 hours after the administration). The blood glucose was measured with a Glucose CII Test Wako (Wako Pure Chemical Industries Co., Ltd.).
The test substances used for this example were: corosolic acid (isolated from banaba leaves), maslinic acid (isolated from banaba leaves), asiatic acid (purchased from LKT Laboratories), 2α,19α-dihydroxy-3-oxo-urs-12-en-28-oic acid (isolated from loquat callus), ursolic acid (purchased from LKT Laboratories), oleanolic acid (purchased from LKT Laboratories), α-amyrin (purchased from LKT Laboratories), β-amyrin (purchased from LKT Laboratories), hederagenin (purchased from LKT Laboratories), 18β-glycyrrhetinic acid (purchased from Wako Pure Chemical Industries Co., Ltd.), sapindoside B (isolated from soapberry), and tormentic acid (isolated from loquat callus).
The blood glucose levels were measured using four KK-Ay mice for each test substance. The measurement results were recorded as mean±SE. Significant change in the blood glucose level was judged by Student's t-test with the significance level (p value) as 0.05.

In assay [2] the test system is borderline diabetic patients. The assay can be described thus: glucose tolerance test after administration of corosolic acid or placebo, blood insulin level (IRI) assayed. The format is in vivo, human. To be noted: 31 borderline diabetic patients, 10 mg oral, 75 g oral glucose load. On the procedure: The following test was conducted to confirm that corosolic acid has an early insulin secretion stimulating effect. A glucose tolerance test was performed after administration of corosolic acid or a placebo, in a double-blind crossover manner, and the blood insulin level (IRI: immunoreactive insulin) was assayed. Significant change in the IRI was judged by Student's t-test with the significance level (p value) as 0.05.
First, 31 borderline diabetic patients as test subjects were orally administered corosolic acid (10 mg, ≧99% purity) or a placebo, and blood was sampled immediately thereafter with the blood insulin level at that time designated as the value at 0 minutes. Immediately after blood sampling, 75 g of glucose was orally administered to each test subject to start a glucose tolerance test, and blood was sampled after periods of 30 minutes, 60 minutes, 90 minutes, 120 minutes and 180 minutes for measurement of the blood insulin level.
FIG. 1 is a graph showing changes in the blood insulin levels during the glucose tolerance test. The horizontal axis represents time (minutes) after start of the glucose tolerance test, and the vertical axis represents IRI (μU/mL). In the graph, (a) is a case with administration of corosolic acid and (b) is a case with administration of the placebo.

Turning to `C[C@@H]1CC[C@]2(C(=O)O)CC[C@]3(C)C(=CC[C@@H]4[C@@]5(C)C[C@@H](O)C(=O)C(C)(C)[C@@H]5CC[C@]43C)[C@@H]2[C@]1(C)O` [2α,19α-dihydroxy-3-oxo-urs-12-en-28-oic acid], the “hypoglycemic effect (change in blood glucose level)” value in assay [1] is listed as “significant hypoglycemic effects”. On the same count and under the same terms, the entry for `CC1(C)[C@@H](O)CC[C@]2(C)[C@H]3C(=O)C=C4[C@@H]5C[C@@](C)(C(=O)O)CC[C@]5(C)CC[C@@]4(C)[C@]3(C)CC[C@@H]12` [18β-glycyrrhetinic acid] is “no definite hypoglycemic effect”. On the same count and under the same terms, next, `CC1(C)CC[C@]2(C(=O)O)CC[C@]3(C)C(=CC[C@@H]4[C@@]5(C)C[C@@H](O)[C@H](O)C(C)(C)[C@@H]5CC[C@]43C)[C@@H]2C1` [Maslinic acid, maslinic acid]: “did not exhibit a significant hypoglycemic effect but did exhibit a tendency toward reducing blood glucose level”; `C[C@H]1[C@H](C)CC[C@]2(C(=O)O)CC[C@]3(C)C(=CC[C@@H]4[C@@]5(C)C[C@@H](O)[C@H](O)[C@@](C)(CO)[C@@H]5CC[C@]43C)[C@H]12` [asiatic acid]: “significant hypoglycemic effects”. For the compound `C[C@H]1[C@H](C)CC[C@]2(C(=O)O)CC[C@]3(C)C(=CC[C@@H]4[C@@]5(C)C[C@@H](O)[C@H](O)C(C)(C)[C@@H]5CC[C@]43C)[C@H]12` [corosolic acid], the “hypoglycemic effect (change in blood glucose level)” value in assay [1] is “significant hypoglycemic effects”. Further, the “blood insulin level (IRI) compared to placebo” value in assay [2] (30 minutes after start of glucose tolerance test) is given as “significant increase in blood insulin level”; in assay [2] (120 minutes after start of glucose tolerance test), “significant drop in blood insulin level”. `CC1(C)CC[C@]2(C(=O)O)CC[C@]3(C)C(=CC[C@@H]4[C@@]5(C)CC[C@H](O)[C@@](C)(CO)[C@@H]5CC[C@]43C)[C@@H]2C1` [hederagenin]: the “hypoglycemic effect (change in blood glucose level)” value in assay [1] was “no definite hypoglycemic effect”. Same read-out and setting: next, `CC1(C)CC[C@]2(C(=O)O)CC[C@]3(C)C(=CC[C@@H]4[C@@]5(C)CC[C@H](O)C(C)(C)[C@@H]5CC[C@]43C)[C@@H]2C1` [oleanolic acid]: “no definite hypoglycemic effect”; `C[C@@H]1O[C@@H](O[C@H]2[C@H](O[C@H]3CC[C@@]4(C)[C@@H](CC[C@]5(C)[C@@H]4CC=C4[C@@H]6CC(C)(C)CC[C@]6(C(=O)O)CC[C@]45C)[C@]3(C)CO)OC[C@H](O)[C@@H]2O)[C@H](O)[C@H](O[C@@H]2OC[C@@H](O)[C@H](O)[C@H]2O)[C@H]1O` [sapindoside B]: “no definite hypoglycemic effect”; `C[C@@H]1CC[C@]2(C(=O)O)CC[C@]3(C)C(=CC[C@@H]4[C@@]5(C)C[C@@H](O)[C@H](O)C(C)(C)[C@@H]5CC[C@]43C)[C@@H]2[C@]1(C)O` [tormentic acid]: “significant hypoglycemic effects”.

`C[C@H]1[C@H](C)CC[C@]2(C(=O)O)CC[C@]3(C)C(=CC[C@@H]4[C@@]5(C)CC[C@H](O)C(C)(C)[C@@H]5CC[C@]43C)[C@H]12` [ursolic acid]: in assay [1], the “hypoglycemic effect (change in blood glucose level)” value is “no definite hypoglycemic effect”. Still for that read-out and setting: next, `C[C@H]1[C@H](C)CC[C@]2(C)CC[C@]3(C)C(=CC[C@@H]4[C@@]5(C)CC[C@H](O)C(C)(C)[C@@H]5CC[C@]43C)[C@H]12` [α-amyrin]: “no definite hypoglycemic effect”; `CC1(C)CC[C@]2(C)CC[C@]3(C)C(=CC[C@@H]4[C@@]5(C)CC[C@H](O)C(C)(C)[C@@H]5CC[C@]43C)[C@@H]2C1` [β-amyrin]: “no definite hypoglycemic effect”.

(Values after patent US20060235078A1, “Insulin secretion potentiator” (Use-Techno Corporation, priority 2003, published 2006).)
